{"source": "patent US20080113938A1", "about": "“ACCELERATOR FOR MINERAL ABSORPTION AND USE THEREOF” (KABUSHIKI KAISHA HAYASHIBARA SEIBUTSU KAGAKU KENKYUJO, priority 2003, published 2008)", "type_in_all_cases": "cell-based, Wister rats", "key": {"[1]": {"test_system": "reversed canal sac of jejunum", "experiment": "Calcium absorption in reversed canal sac, jejunum", "protocol": "(§1) Experiment 1 confirmed that cyclic tetrasaccharide promotes mineral absorption in alimentary canal of rat concretely in intestinum ileum or its upper alimentary canal. The following experiment was carried out in order to determine a part of alimentary canal, cyclic tetrasaccharide acts on to promote mineral absorption. Twenty heads of Wister rats (nine week aged male, commercialized by Charlesriver Corporation, Kanagawa, Japan) were bred for three days with a usual solid feed for rats. Under the anesthetization with ether, alimentary canal was taken out from each rat which had been bled from a jugular vein and treated by abdominal operation. Each alimentary canal was divided into jejunum, intestinum ileum and colon/rectum and washed with physiological saline to remove the content. The resulting jejunum specimen, intestinum ileum specimen or colon/rectum specimen was cut off to prepare each midsection sized with about 10 cm in length. The resulting midsection of each specimen was reversed using a glass rod and immersed in a physiological saline babbled with gas consisting of 95% oxygen and 5% carbon dioxide. The resultant was cut into pieces sized with 5 cm in length and each piece was tied with a suture thread at both ends to prepare a reversed canal sac, and injected with about 0.5 ml of an internal sac solution containing 30 mM Tris-HCl buffer (pH7.4), 125 mM sodium chloride, 4 mM potassium chloride, 10 mM glucose and 1.25 mM calcium chloride (dihydrate) with a syringe and weighed. The resulting sac was immersed in an external sac solution (being bubbled with the gas consisting of 95% oxygen and 5% carbon dioxide) containing 50 mM, 100 mM or 200 mM of the same cyclic tetrasaccharide to Experiment 1 in the above solution containing 30 mM Tris-HCl buffer (pH7.4), 125 mM sodium chloride, 4 mM potassium chloride, 10 mM glucose and 1.25 mM calcium chloride (dihydrate). At 15 or 30 minutes after the immersion, the reversed canal sac was taken out from the solution and washed with distilled water. The internal sac solution was collected from the resulting sac and admixed with distilled water to give a final volume of 25 ml. The resulting solution was subjected to a calorimetric measurement of calcium content using “CALCIUM TEST C WAKO™” (commercialized by Wako Pure Chemicals Corporation, Osaka, Japan). As a negative control, an external sac solution without saccharides. As a positive control, an external sac solution containing 200 mM maltitol, reported to have the effect on promoting mineral absorption though intestinal canal, instead of cyclic tetrasaccharide were prepared and carried out in the same manner. Speed of calcium absorption (nmol/min·cm^2) and its relative values defining the value of negative control as 100 were calculated."}, "[2]": {"test_system": "reversed canal sac of intestinum ileum", "experiment": "Calcium absorption in reversed canal sac, intestinum ileum", "protocol": "as §1"}, "[3]": {"test_system": "reversed canal sac of colon/rectum", "experiment": "Calcium absorption in reversed canal sac, colon/rectum", "protocol": "as §1"}, "[4]": {"details": "200 mM saccharide in external sac solution"}}, "note": "Marks after values point to notes of the source that are not given here.", "data": [{"compound": "OC[C@@H](O)[C@@H](O[C@H]1O[C@H](CO)[C@@H](O)[C@H](O)[C@H]1O)[C@H](O)[C@@H](O)CO", "note": "[Maltitol, maltitol, reference compound]", "values": [{"measurement": "Absorption speed of calcium in alimentary canal sac, Jejunum", "setting": "[1]; [4]", "value": "27.9 * nmol/min · cm^2"}, {"measurement": "Relative value of calcium absorption speed (control = 100), Jejunum", "setting": "[1]; [4]", "value": "(131)"}, {"measurement": "promotion of calcium absorption in jejunum", "setting": "[1]; reversed sac", "value": "strongly promoted"}, {"measurement": "Absorption speed of calcium in alimentary canal sac, Intestinum ileum", "setting": "[2]; [4]", "value": "40.5 * nmol/min · cm^2"}, {"measurement": "Relative value of calcium absorption speed (control = 100), Intestinum ileum", "setting": "[2]; [4]", "value": "(150)"}, {"measurement": "promotion of calcium absorption in intestinum ileum", "setting": "[2]; reversed sac", "value": "strongly promoted"}, {"measurement": "Absorption speed of calcium in alimentary canal sac, Colon/Rectum", "setting": "[3]; [4]", "value": "22.3 * nmol/min · cm^2"}, {"measurement": "Relative value of calcium absorption speed (control = 100), Colon/Rectum", "setting": "[3]; [4]", "value": "(168)"}, {"measurement": "promotion of calcium absorption in colon/rectum", "setting": "[3]; reversed sac", "value": "strongly promoted"}]}]}
